Data published in patent publication US3933793A, “Therapeutically active 2-aminoalkylthio-3H-1.5-benzodiazepines and process for preparing them” (Recordati S.A. Chemical and Pharmaceutical Company, priority 1971, dated 1976).
Values after ≈ are worked out from the molar mass of the structure shown. Counter-ions that a name gives are not always drawn.

Tests used:
Experiment in all cases: Antibacterial activity, minimum inhibitory concentration
[1] = system: Bacillus subtilis ATCC 9466; settings: ATCC9466, 18 h, read-out: minimum inhibitory concentration, B. subtilis
[2] = system: Micrococcus pyogenes SG-511; settings: Staphylococcus aureus, SG511, 18 h, read-out: minimum inhibitory concentration, M. pyogenes
[3] = system: Streptococcus pyogenes A 88; settings: A88, 18 h, read-out: minimum inhibitory concentration, S. pyogenes
Escherichia coli 100 = settings: Escherichia coli, 100, 18 h, read-out: minimum inhibitory concentration, B. coli

Row | MIC [1] [mg/L] | MIC [2] [mg/L] | MIC [3] [mg/L] | MIC (Escherichia coli 100) [mg/L] | Compound
1 | 160 | 160 | 80 | – | C[N+]1(C)CCN(CCCSC2=Nc3ccccc3N=C(c3ccccc3)C2)CC1 [Compound 9, 2,gamma,N'-methyl-N-piperazine-n-propylthio-4-phenyl-3H-1,5-benzodiazepine monoiodomethylate]
2 | 160 | – | 80 | 80 | C[N+](C)(C)CCCSC1=Nc2ccccc2N=C(c2ccccc2)C1 [Compound 12, 2,gamma,N-dimethylaminopropylthio-4-phenyl-3H-1,5-benzo-diazepine iodomethylate]
3 | 40 | 40 | 40 | 80 | Clc1ccc(C2=Nc3ccccc3N=C(SCCCN3CCCC3)C2)cc1 [Compound 13, 2,gamma,N-pyrrolidinopropylthio-4,p-chlorophenyl-3H-1,5-benzodiazepine^. HCl]
4 | 40 | 20 | 40 | 40 | C[N+]1(CCCSC2=Nc3ccccc3N=C(c3ccc(Cl)cc3)C2)CCCC1 [Compound 14, 2,gamma,N-pyrrolidinopropylthio-4,p-chlorophenyl-3H-1.5-benzodiazepine iodomethylate]
5 | 20 (≈ 52.1 µM) | 40 (≈ 104 µM) | 40 (≈ 104 µM) | 80 (≈ 208 µM) | Clc1ccc(C2=Nc3ccccc3N=C(SCCN3CCCC3)C2)cc1 [Compound 15, 2,beta,N-pyrrolidinoethylthio-4,p-chlorophenyl-3H-1,5-benzodiazepine]
6 | 40 | 20 | 40 | 40 | C[N+]1(CCSC2=Nc3ccccc3N=C(c3ccc(Cl)cc3)C2)CCCC1 [Compound 16, 2,β,N-pyrrolidinoethylthio-4,p-chlorophenyl-3H-1,5-benzodiazepine iodomethylate]
7 | 20 | 40 | 20 | – | CCN(CC)CCSC1=Nc2ccccc2N=C(c2ccc(Cl)cc2)C1 [Compound 17, 2,beta,N-diethylaminoethylthio-4,p-chlorophenyl-3H-1,5-benzodiazepine^.HCl]
8 | 20 | 40 | – | 20 | CC[N+](C)(CC)CCSC1=Nc2ccccc2N=C(c2ccc(Cl)cc2)C1 [Compound 18, 2,beta,N-diethylaminoethylthio-4,p-chlorophenyl-3H-1,5-benzodiazepine iodomethylate]
9 | 40 | 40 | 40 | 80 | CCN(CC)CCCSC1=Nc2ccccc2N=C(c2ccc(Cl)cc2)C1 [Compound 19, 2,gamma,N-diethylaminopropylthio-4,p-chlorophenyl-3H-1,5-benzodiazepine^. HCl]
10 | 80 | 20 | 40 | 80 | CC[N+](C)(CC)CCCSC1=Nc2ccccc2N=C(c2ccc(Cl)cc2)C1 [Compound 20, 2,gamma,N-diethylaminopropylthio-4,p-chlorophenyl-3H-1,5-benzodiazepine iodomethylate]
11 | 20 | 40 | 40 | 80 | CCN(CC)CCSC1=Nc2ccccc2N=C(c2cccc(Cl)c2)C1 [Compound 21, 2,beta,N-diethylaminothylthio-4,m-chlorophenyl-3H-1,5-benzodiazepine^. HCl]
12 | 80 | 20 | 40 | 40 | CC[N+](C)(CC)CCSC1=Nc2ccccc2N=C(c2cccc(Cl)c2)C1 [Compound 22, 2,beta,N-diethylaminoethylthio-4,m-chlorophenyl-3H-1,5-benzodiazepine iodomethylate]
13 | – | 80 | – | – | CC[N+](C)(CC)CCSC1=Nc2ccccc2N=C(c2ccccc2Cl)C1 [Compound 24, 2,β,N-diethylaminoethylthio-4,o-chlorophenyl-3H-1,5-benzodiazepine iodomethylate]
14 | 10 | – | – | 80 | CCN(CC)CCSC1=Nc2ccccc2N=C(c2ccc(Oc3ccccc3)cc2)C1 [Compound 27, 2,beta,N-diethylaminoethylthio-4,p-phenoxyphenyl-3H-1,5-benzodiazepine.HCl]
15 | – | – | – | 80 (≈ 174 µM) | CCN(CC)CCSC1=Nc2ccccc2N=C(c2ccc(Sc3ccccc3)cc2)C1 [Compound 29, 2,beta-N-diethylaminoethylthio-4,p-phenylthiophenyl-3H-1,5-benzodiazepine.HOl]
16 | 80 | – | – | 160 | C[N+]1(C)CC[N+](C)(CCSC2=Nc3ccccc3N=C(c3ccc(Sc4ccccc4)cc3)C2)CC1 [Compound 36, 2,beta,N(N'-methyl)piperazinoethylthio-4-p-phenylthiophenyl-3H-1,5-benzodiazepine bis-iodomethylate]
17 | 5 (≈ 10.6 µM) | 5 (≈ 10.6 µM) | 5 (≈ 10.6 µM) | – | c1ccc(Sc2ccc(C3=Nc4ccccc4N=C(SCCCN4CCCC4)C3)cc2)cc1 [Compound 37, 2,gamma,pyrrolidinopropylthio-4,p-phenylthiophenyl-3H-1,5-benzodiazepine.HC]
18 | 1.25 (≈ 2.73 µM) | – | 1.25 (≈ 2.73 µM) | – | c1ccc(Sc2ccc(C3=Nc4ccccc4N=C(SCCN4CCCC4)C3)cc2)cc1 [Compound 43, 2,beta,N-pyrrolidinoethylthio-4,p-phenylthiophenyl-3H-1,5-benzodiazepine]
19 | 20 | – | – | – | CN(C)CCSC1=Nc2ccccc2N=C(c2ccc(Sc3ccccc3)cc2)C1 [Compound 45, 2,beta,N-dimethylaminoethylthio-4,p-phenylthiophenyl-3H-1,5-benzodiazepine citrate]
20 | 80 (≈ 228 µM) | 80 (≈ 228 µM) | – | 80 (≈ 228 µM) | CCN(CC)CCSC1=Nc2ccccc2N=C(c2ccccc2)C1 [Compound 53]
21 | 160 (≈ 458 µM) | 80 (≈ 229 µM) | 80 (≈ 229 µM) | – | c1ccc(C2=Nc3ccccc3N=C(SCCN3CCCC3)C2)cc1 [Compound 57]
22 | 80 (≈ 220 µM) | 80 (≈ 220 µM) | – | 160 (≈ 440 µM) | c1ccc(C2=Nc3ccccc3N=C(SCCN3CCCCC3)C2)cc1 [Compound 59]
23 | – | – | 80 (≈ 210 µM) | – | CCN(CC)CCSC1=Nc2ccccc2N=C(c2ccc(OC)cc2)C1 [Compound 69]
24 | 10 (≈ 23.2 µM) | 20 (≈ 46.5 µM) | 10 (≈ 23.2 µM) | 80 (≈ 186 µM) | CCN(CC)CCSC1=Nc2ccccc2N=C(c2ccc(Br)cc2)C1 [Compound 71]
25 | 20 | 10 | 20 | 20 | CC[N+](C)(CC)CCSC1=Nc2ccccc2N=C(c2ccc(Br)cc2)C1 [Compound 72]
26 | 10 | 20 | 10 | 40 | CC[N+](C)(CC)CCSC1=Nc2ccccc2N=C(c2ccc(SC)cc2)C1 [Compound 74]
27 | 10 | 10 | 10 | 20 | CCSc1ccc(C2=Nc3ccccc3N=C(SCC[N+](C)(CC)CC)C2)cc1 [Compound 76]
28 | 5 (≈ 11.7 µM) | 10 (≈ 23.5 µM) | 5 (≈ 11.7 µM) | – | CCCSc1ccc(C2=Nc3ccccc3N=C(SCCN(CC)CC)C2)cc1 [Compound 77]
29 | 1.25 | 1.25 | 1.25 | 10 | CCCSc1ccc(C2=Nc3ccccc3N=C(SCC[N+](C)(CC)CC)C2)cc1 [Compound 78]
30 | 5 | 5 | 5 | 40 | CC[N+](C)(CC)CCSC1=Nc2ccccc2N=C(c2ccc(SC(C)C)cc2)C1 [Compound 80]
